According to the supplement of paper PMC10307832:

Experiments:
Experiment in all cases: relative viability (nuclei count vs DMSO), 5 days (fraction); higher = more cells survive
ABC-1 = test system: ABC-1
Summary of the method: (§1)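 Relative viability divides the nuclei count in treated wells by that in vehicle wells. Lung cancer cell lines were seeded in 1536-well plates, dosed by pin tool the next day, and fixed and stained after 5 days in one step with final 0.05% Triton X-100, 1% formaldehyde and 1 ug/ml Hoechst. Dosing was a single drug or a fixed anchor-drug dose plus five library-drug doses (not always all listed) in √10 steps, and values are medians of duplicate plates imaged at 4×.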

COR-L23 = test system: COR-L23
Summary of the method: as §1

ChaGo-K-1 = test system: ChaGo-K-1
Summary of the method: as §1

EPLC-272H = test system: EPLC-272H
Summary of the method: as §1

HCC-15 = test system: HCC-15
Summary of the method: as §1

HCC-366 = test system: HCC-366
Summary of the method: as §1

HCC-44 = test system: HCC-44
Summary of the method: as §1

HCC-827 = test system: HCC-827
Summary of the method: as §1

LCLC-103H = test system: LCLC-103H
Summary of the method: as §1

NCI-H1355 = test system: NCI-H1355
Summary of the method: as §1

NCI-H1734 = test system: NCI-H1734
Summary of the method: as §1

NCI-H1793 = test system: NCI-H1793
Summary of the method: as §1

NCI-H1944 = test system: NCI-H1944
Summary of the method: as §1

NCI-H2009 = test system: NCI-H2009
Summary of the method: as §1

NCI-H2023 = test system: NCI-H2023
Summary of the method: as §1

NCI-H2085 = test system: NCI-H2085
Summary of the method: as §1

NCI-H2228 = test system: NCI-H2228
Summary of the method: as §1

NCI-H2347 = test system: NCI-H2347
Summary of the method: as §1

NCI-H2405 = test system: NCI-H2405
Summary of the method: as §1

NCI-H3122 = test system: NCI-H3122
Summary of the method: as §1

PC-14 = test system: PC-14
Summary of the method: as §1

SW 1573 = test system: SW 1573
Summary of the method: as §1

`CN1CCN(CCOc2cc(OC3CCOCC3)c3c(Nc4c(Cl)ccc5c4OCO5)ncnc3c2)CC1` [Saracatinib] + COc1cccc2cc(-c3nc([C@H]4CC[C@H](C(=O)O)CC4)n4ncnc(N)c34)[nH]c12 [OSI-027] (partner 0.5 µM) showed a relative viability (ABC-1; first compound 0.02 µM) of 0.428, a relative viability (ABC-1; first compound 0.2 µM) of 0.65 and a relative viability (ABC-1; first compound 0.6325 µM) of 0.547. For the same compound, the relative viability (ABC-1; first compound 2 µM) was 0.543, the relative viability (COR-L23; first compound 0.02 µM) was 0.698 and the relative viability (COR-L23; first compound 0.2 µM) was 0.684. For the same compound, the relative viability (COR-L23; first compound 0.6325 µM) was 0.746, the relative viability (COR-L23; first compound 2 µM) was 0.641 and the relative viability (ChaGo-K-1; first compound 0.02 µM) was 0.707. For the same compound, the relative viability (ChaGo-K-1; first compound 0.2 µM) was 0.533, the relative viability (ChaGo-K-1; first compound 0.6325 µM) was 0.519 and the relative viability (ChaGo-K-1; first compound 2 µM) was 0.524. It also gave a relative viability (EPLC-272H; first compound 0.02 µM) of 0.304, a relative viability (EPLC-272H; first compound 0.2 µM) of 0.27 and a relative viability (EPLC-272H; first compound 0.6325 µM) of 0.348. It also gave a relative viability (EPLC-272H; first compound 2 µM) of 0.278, a relative viability (HCC-15; first compound 0.02 µM) of 0.806 and a relative viability (HCC-15; first compound 0.2 µM) of 0.586. The relative viability (HCC-15; first compound 0.6325 µM) was 0.708, the relative viability (HCC-15; first compound 2 µM) was 0.605 and the relative viability (HCC-366; first compound 0.02 µM) was 1.02. For the same compound, the relative viability (HCC-366; first compound 0.6325 µM) was 0.757, the relative viability (HCC-366; first compound 2 µM) was 0.385 and the relative viability (HCC-44; first compound 0.02 µM) was 0.483. The relative viability (HCC-44; first compound 0.2 µM) was 0.522, the relative viability (HCC-44; first compound 0.6325 µM) was 0.592 and the relative viability (HCC-44; first compound 2 µM) was 0.543. For the same compound, the relative viability (HCC-827; first compound 0.02 µM) was 0.791, the relative viability (HCC-827; first compound 0.2 µM) was 0.564 and the relative viability (HCC-827; first compound 0.6325 µM) was 0.259. For the same compound, the relative viability (HCC-827; first compound 2 µM) was 0.122, the relative viability (LCLC-103H; first compound 0.02 µM) was 0.481 and the relative viability (LCLC-103H; first compound 0.2 µM) was 0.427. For the same compound, the relative viability (LCLC-103H; first compound 0.6325 µM) was 0.505, the relative viability (LCLC-103H; first compound 2 µM) was 0.459 and the relative viability (NCI-H1355; first compound 0.02 µM) was 0.482. The relative viability (NCI-H1355; first compound 0.2 µM) was 0.379, the relative viability (NCI-H1355; first compound 0.6325 µM) was 0.427 and the relative viability (NCI-H1355; first compound 2 µM) was 0.323. The relative viability (NCI-H1734; first compound 0.02 µM) was 0.635, the relative viability (NCI-H1734; first compound 0.6325 µM) was 0.571 and the relative viability (NCI-H1734; first compound 2 µM) was 0.507. It also gave a relative viability (NCI-H1793; first compound 0.02 µM) of 0.303, a relative viability (NCI-H1793; first compound 0.6325 µM) of 0.312 and a relative viability (NCI-H1793; first compound 2 µM) of 0.253. It also gave a relative viability (NCI-H1944; first compound 0.02 µM) of 0.43, a relative viability (NCI-H1944; first compound 0.6325 µM) of 0.324 and a relative viability (NCI-H1944; first compound 2 µM) of 0.274. The relative viability (NCI-H2009; first compound 0.02 µM) was 0.628, the relative viability (NCI-H2009; first compound 0.2 µM) was 0.547 and the relative viability (NCI-H2009; first compound 0.6325 µM) was 0.579. The relative viability (NCI-H2009; first compound 2 µM) was 0.357, the relative viability (NCI-H2023; first compound 0.02 µM) was 0.473 and the relative viability (NCI-H2023; first compound 0.2 µM) was 0.394. For the same compound, the relative viability (NCI-H2023; first compound 0.6325 µM) was 0.316, the relative viability (NCI-H2023; first compound 2 µM) was 0.273 and the relative viability (NCI-H2085; first compound 0.02 µM) was 0.839. The relative viability (NCI-H2085; first compound 0.2 µM) was 0.723, the relative viability (NCI-H2085; first compound 0.6325 µM) was 0.772 and the relative viability (NCI-H2085; first compound 2 µM) was 0.78. It also gave a relative viability (NCI-H2228; first compound 0.02 µM) of 0.719, a relative viability (NCI-H2228; first compound 0.2 µM) of 0.343 and a relative viability (NCI-H2228; first compound 0.6325 µM) of 0.529. It also gave a relative viability (NCI-H2228; first compound 2 µM) of 0.381, a relative viability (NCI-H2347; first compound 0.02 µM) of 0.348 and a relative viability (NCI-H2347; first compound 0.2 µM) of 0.373. The relative viability (NCI-H2347; first compound 0.6325 µM) was 0.406, the relative viability (NCI-H2347; first compound 2 µM) was 0.306 and the relative viability (NCI-H2405; first compound 0.02 µM) was 0.647. For the same compound, the relative viability (NCI-H2405; first compound 0.2 µM) was 0.62, the relative viability (NCI-H2405; first compound 0.6325 µM) was 0.649 and the relative viability (NCI-H2405; first compound 2 µM) was 0.38. The relative viability (NCI-H3122; first compound 0.02 µM) was 0.957, the relative viability (NCI-H3122; first compound 0.2 µM) was 0.357 and the relative viability (NCI-H3122; first compound 0.6325 µM) was 0.968. The relative viability (NCI-H3122; first compound 2 µM) was 0.718, the relative viability (PC-14; first compound 0.02 µM) was 0.81 and the relative viability (PC-14; first compound 0.2 µM) was 0.406. The relative viability (PC-14; first compound 0.6325 µM) was 0.151, the relative viability (PC-14; first compound 2 µM) was 0.0888 and the relative viability (SW 1573; first compound 0.02 µM) was 0.624. It also gave a relative viability (SW 1573; first compound 0.2 µM) of 0.55, a relative viability (SW 1573; first compound 0.6325 µM) of 0.667 and a relative viability (SW 1573; first compound 2 µM) of 0.456.
